How the values were obtained:
[1] = Antimicrobial activity of pure commercial preparations; format: cell-based; conditions: concentrations as high as 0.125M
Excerpt: Reuterin Is a Product of Glycerol Fermentation. Reuterin is a new product associated with the same type of heterolactic fermentation of glycerol that occurs in other Lactobacillus species. Reuterin can be isolated and identified as a product of glycerol fermentation by L. reuteri using HPLC.

E. coli [2] = test: Co-culture of E. coli with and without L. reuteri 1063 on various substrates (Table 1); format: cell-based; set-up: % Inhibition: concentration or dose not given beside the values; conditions: for E. coli (CFU/ml) after 6 hours: substrate 20 mM (C6, C5) or 40 mM (C3), inoculum 5 x 10^6 CFU per ml E. coli; for % Inhibition: E. coli with versus without L. reuteri 1063 on the substrate, 6 hours
Experimental: (§1) Conditions under which reuterin is produced have been determined. Reuterin is not produced under aerobic conditions (atmospheric oxygen concentration) but under reduced oxygen tension. It is produced when L. reuteri is cultured anaerobically (or semi-anaerobically in still culture) in the MIC assay medium described above containing 20-500 mM glycerol or glyceraldehyde in place of glucose as the major carbon and energy source. […] Twenty other substances, including hexoses, hexitols, pentoses, pentitols, disaccharides and a variety of phosphorylated and non-phosphorylated C3-substances, were tested for their ability to support reuterin production. […] The medium, containing a substrate at 20 mM (C6 and C5 substrates) or 40 mM (C3 substrates) concentrations, was inoculated with 5 x 10^6 colony-forming units (CFU) per ml E. coli with and without L. reuteri. Only glycerol and glyceraldehyde yielded reuterin. Also, réuterin production from glycerol is inhibited when glucose or another growth substrate is included in the production medium. The results shown in Table 2 indicate the percent inhibition in viable count of a 6.7 x 10^7 CFU per ml E. coli inoculum by supernatant fractions of L. reuteri grown on various indicated substrates at 40 mM concentrations.

E. coli [3] = test: Inhibition of E. coli by supernatant fractions of L. reuteri grown on various substrates (Table 2); format: cell-based; conditions: for % Inhibition: percent inhibition in viable count of 6.7 x 10^7 CFU per ml E. coli inoculum by supernatant fraction, substrate 40 mM; for Growth of E. coli presence of centrifuged culture medium CFU/ml after 6 hours: supernatant fraction of L. reuteri grown on the substrate at 40 mM, inoculum 6.7 x 10^7 CFU per ml E. coli
Experimental: as §1

E. coli K12 [4] = test: Minimum Inhibitory Concentration (MIC) procedure; format: cell-based; conditions: chemically synthesized as described by Hall, compared with biologically synthesized reuterin
Experimental: Reuterin. When Lactobacillus reuteri cells capable of producing reuterin are placed under certain favorable conditions, reuterin is produced. A number of assays have been developed to detect and quantitate reuterin. A standard Minimum Inhibitory Concentration (MIC) procedure was adopted to detect reuterin and to elucidate factors affecting its production. E. coli K12 is used as the susceptible test microorganism and the assay is carried-out as follows. Overnight cultures of E. coli are harvested, washed twice with sterile 0.05 sodium phosphate buffer (pH 7.5), suspended in this buffer and adjusted to 60 percent transmission (A 420 nm) using a Spectronic 70 instrument. This suspension is diluted 1:100 and 0.1 ml aliquots are used to inoculate 1.0 ml of the MIC assay medium which contains (g/L): vitamin-free casein hydrolysate, 3; ammonium citrate, 1.9; citric acid, 0.63; KH2PO4, 12.6; MgSO4 (hepta-hydrate), 0.2; pH adjusted to 7.0 and 20 mM glucose added after sterilization. […] Relative reuterin concentrations (units reuterin) are then calculated as the reciprocal of the sample dilution preceding the dilution allowing visible growth of the indicator cells. Another assay relating MIC values to reuterin peak heights as determined by HPLC analyses (described below) has also been developed.

Saccharomyces cerevisiae = test: Sensitivity to reuterin (Table 6); format: cell-based
Experimental: (§2) Antimicrobial Activity. Reuterin is a broad-spectrum antimicrobial agent. Reuterin functions as a bacteriocide. […] The indicated concentrations (CFU per ml) of E. coli (solid lines) and L. reuteri 1063 (dashed lines) were inoculated (zero time) into the glycerol casein hydrolysate medium described above (o), the same medium minus citrate (•) and the same medium minus glycerol (X). The co-cultures were incubated semi-anaerobically (still cultures) at 37 degrees C with samples removed at the indicated intervals to determine the numbers (CFU per ml) of E. coli and L. reuteri present. […] All Gram-negative bacterial genera tested thus far (Escherichia, Shigella, Salmonella, Proteus and Pseudomonas) and all Gram positive genera tested (Staphylococcus, Streptococcus, Clostridium, Bacillus, Leuconostoc and Lactobacillus) are sensitive to reuterin. Somewhat higher concentrations of reuterin are required, however, to kill representatives of the latter three genera. A lower eucaryote, the yeast Saccharomyces cerevisiae, is also killed by reuterin. Also shown in this table is the ability of various species tested to stimulate reuterin production by the heterologous procedure.

Pediococcus cerevisiae = test: Sensitivity to reuterin (Table 6); format: cell-based
Experimental: as §2

[5] = system: Leuconostoc mesenteroides; test: Sensitivity to reuterin (Table 6); format: cell-based
Experimental: as §2

Clostridium sporogenes = test: Sensitivity to reuterin (Table 6); format: cell-based
Experimental: as §2

Bacillus megaterium = test: Sensitivity to reuterin (Table 6); format: cell-based
Experimental: as §2

E. coli K12 [6] = test: Food preservation: E. coli-inoculated ground beef (Figure 15); conditions: 75 units (U) of reuterin per gram of beef; 4°C; 9-day incubation period
Experimental: Ground beef purchased from a local supermarket was thoroughly inoculated and mixed with approximately 10^5CFU/ml of E. coli K12 cells. After mixing, the material was divided into 2 portions. One portion was an untreated control (no reuterin), the other portion received 75 units (U) of reuterin per gram of beef. Samples were stored at 4°C with portions removed at indicated times for bacteriological analysis. In this experiment the determination of viable cells (CFU/g beef) was conducted as described for Figure 14 except that Difco McConkey's Agar (relatively specific for coliform-like bacteria) was used.

[7] = Characterizations of reuterin in crude preparations; format: physicochemical
Lambda phage = test: Reuterin added to phage-infected bacterial cultures: virus PFUs (Figure 13); format: cell-based; conditions: 10 units of reuterin; four hours; compared to the reuterin-free control culture
Experimental: (§3) Antiviral Activity. Reuterin is also effective in preventing virus replication. […] It appears from preliminary results with ^14C-labeled glycerol that 4 ug of reuterin in 0.5 ml solution is about the equivalent of 1 unit of reuterin. After four hours, the number of colony-forming units (CFUs) of the host cell and the number of plaque-forming units (PFUs) of the viruses were assayed using standard microbiological techniques. With no reuterin added, the number of microbial cells had increased about 100-fold in the four-hour period. With E. coli, addition of 10 units of reuterin caused an approximate 100-fold decrease in the number of cells and more than a 1000-fold decrease in the number of PFUs of the lambda phage as compared to the reuterin-free control culture after incubation for four hours.

L. reuteri = test: Sensitivity of L. reuteri itself to reuterin; format: cell-based
Experimental: as §2

phage 8014-B2 = test: Reuterin added to phage-infected bacterial cultures: virus PFUs versus host CFUs (Figure 13); format: cell-based, Lactobacillus plantarum; conditions: reuterin amounts at or greater than 25 units; four hours
Experimental: as §3

ground beef microflora = test: Food preservation: ground beef microflora (Figure 14); conditions: 50 and 100 units per g; stored at 4 degrees C; through the 6-day test period
Experimental: Reuterin is an effective food preservative. Ground beef purchased from a local supermarket was divided into 4 portions. One portion was untreated, the others were treated with 10, 50 and 100 units of reuterin per gram of the meat. All samples were stored at 4 degrees C with samples taken at indicated days for bacteriological analysis.
Beef samples were removed and diluted 1:10 (1 g beef: 9 ml sterile H2O). Subsequent decimal dilutions were made as needed and samples were plated onto Difco Nutrient Agar. These samples were incubated at 27°C for 24 hours and counted as colony forming units per gram ground beef (CFU/g). […] With the higher levels of reuterin (50 and 100 units per g) the indigenous population of bacteria was reduced and remained greater than 4 log units lower than the control sample through the 6-day test period.

Tryoanosoma cruzi = test: In vitro growth of the protozoan parasite; format: cell-based; conditions: final concentration of approximately 20 MIC units ml^-1
E. coli [8] = test: Bacteriocidal activity in E. coli / L. reuteri 1063 co-culture in glycerol medium (Figure 5); format: cell-based; conditions: glycerol present; co-culture with L. reuteri 1063, still culture, 37 degrees C; few hours after first 3-4 hours
Experimental: as §2

Escherichia coli = test: Reuterin added to phage-infected bacterial cultures: host CFUs (Figure 13); format: cell-based; conditions: 10 units of reuterin; four hours; compared to the reuterin-free control culture
Experimental: as §3

Molecule | E. coli (CFU/ml) after 6 hours (E. coli [2]; Addition of L. reuteri 1063: +) | E. coli (CFU/ml) after 6 hours (E. coli [2]; Addition of L. reuteri 1063: -) | % Inhibition (E. coli [2]) | % Inhibition (E. coli [3]) | Growth of E. coli presence of centrifuged culture medium CFU/ml after 6 hours (E. coli [3]) | other results
OCCCO [1,3-propanediol] |  |  |  |  |  | antimicrobial activity [1]: essentially devoid of antimicrobial activity
OC[C@@H](O)C(O)[C@H](O)CO [Arabitol] | 2.9x10^6 CFU/ml | 2.7x10^6 CFU/ml | 0% |  |  | 
O=C(CO)COP(=O)(O)O [Dihydroxyacetone-P] | 4.1x10^6 CFU/ml | 3.4x10^6 CFU/ml | 0% | 0% | 3.7x10^9 CFU/ml | 
O=C(CO)[C@@H](O)[C@H](O)[C@H](O)CO [Fructose] | 3.0x10^8 CFU/ml | 2.1x10^8 CFU/ml | 0% |  |  | 
O=C(O)[C@H](O)[C@@H](O)[C@H](O)[C@H](O)CO [Gluconate] | 3.2x10^8 CFU/ml | 3.5x10^8 CFU/ml | 0% |  |  | 
O=CC(O)CO (stereo not shown) [Glyceraldehyde] | 3.2x10^4 CFU/ml | 2.8x10^6 CFU/ml | 99% | 98.9% | 6.1x10^5 CFU/ml | 
OC[C@@H](O)[C@@H](O)[C@H](O)[C@H](O)CO [Mannitol] | 2.7x10^8 CFU/ml | 2.3x10^8 CFU/ml | 0% |  |  | 
C=C(OP(=O)(O)O)C(=O)O [Phosphoenolpyruvate] |  |  |  | 0% | 3.7x10^9 CFU/ml | 
CC(=O)C(=O)O [Pyruvate] |  |  |  | 0% | 4.1x10^9 CFU/ml | 
OC[C@@H](O)[C@@H](O)[C@@H](O)CO [Ribitol] | 4.9x10^6 CFU/ml | 5.7x10^6 CFU/ml | 0% |  |  | 
OC[C@@H](O)[C@@H](O)[C@H](O)[C@@H](O)CO [Sorbitol] | 1.9x10^8 CFU/ml | 2.1x10^8 CFU/ml | 0% |  |  | 
O=C[C@H](O)[C@@H](O)[C@H](O)CO [Xylose] | 6.9x10^7 CFU/ml | 6.7x10^7 CFU/ml | 0% |  |  | 
OCCC1OCCC(O)O1 (stereo not shown) [reuterin, 4-hydroxy-2-2'-hydroxyethyl-1:3-dioxan] |  |  |  |  |  | MIC value (E. coli K12 [4]): idential MIC value as the biologically synthesized reuterin; Sensitivity to reuterin (Saccharomyces cerevisiae): S; Sensitivity to reuterin (Pediococcus cerevisiae): S; Sensitivity to reuterin [5]: S; Sensitivity to reuterin (Clostridium sporogenes): S; Sensitivity to reuterin (Bacillus megaterium): S; viable cells (CFU/g beef) on McConkey's Agar (E. coli K12 [6]): reduced the initial population of bacteria and kept these numbers low; stability to heat ([7]; 100 degrees C for 10 minutes, particularly at pH values of 9.0 or higher): labile to heat; resistance to nucleases and proteases ([7]; crude preparations): resistant to nucleases and proteases; solubility in water ([7]; crude preparations): highly soluble in water; decrease in the number of PFUs of the lambda phage (Lambda phage): > 1000 fold; concentrations at which L. reuteri itself is sensitive to reuterin (L. reuteri): ≥ 32 MIC units; Lactobacillus CFU and PFU decreases due to reuterin (phage 8014-B2): even greater declines in the PFUs than in the CFUs; indigenous population of bacteria lower than the control sample (ground beef microflora): greater than 4 log units; in vitro growth of the protozoan parasite (Tryoanosoma cruzi): inhibits in vitro growth; log decrease in viable E. coli cells (E. coli [8]): 7-8 log; decrease in the number of cells (Escherichia coli): about 100 fold
O=P(O)(O)OC(CO)CO [β-Glycerol-P] | 6.5x10^6 CFU/ml | 5.1x10^6 CFU/ml | 0% | 0% | 3.2x10^9 CFU/ml | 
O=C(O)CCO [β-hydroxypropionic acid] |  |  |  |  |  | antimicrobial activity [1]: essentially devoid of antimicrobial activity
Phosphoglycerate |  |  |  | 0% | 3.3x10^9 CFU/ml | 
